Series [1] deals with T1, ADP-ribosyl cyclase/cyclic ADP-ribose hydrolase 1 (Homo sapiens, UniProt P28907).
T1 sequence (P28907 whole entry): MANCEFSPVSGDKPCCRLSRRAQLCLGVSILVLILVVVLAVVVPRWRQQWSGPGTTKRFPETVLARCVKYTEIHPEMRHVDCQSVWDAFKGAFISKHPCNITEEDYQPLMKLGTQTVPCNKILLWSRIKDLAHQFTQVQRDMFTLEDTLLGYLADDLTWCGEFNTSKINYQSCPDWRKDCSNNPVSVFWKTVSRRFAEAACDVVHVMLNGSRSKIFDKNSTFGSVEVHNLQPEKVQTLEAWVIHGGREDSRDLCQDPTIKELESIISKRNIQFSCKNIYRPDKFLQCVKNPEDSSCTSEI
Description: Inhibition of human his tagged CD38 using N6-etheno-NAD as substrate by fluorescence microplate reader assay

A short description of series [2]: Drug exposure in mouse plasma assessed as AUC of drug at 3 mg/kg, po. The series is classed as ADME, organism-based. Also noted: dose 3 mg/kg, route po.

Where only a bound is given, the exact number is not on record here.

What is called IC50 is the concentration that gives 50% inhibition. In turn, `COCCO[C@H]1CC[C@H](NC(=O)c2cc(-c3cccnn3)cc3cc[nH]c23)CC1` showed an IC50 in series [1] of over 100 µM.

`COCCO[C@H]1CC[C@H](NC(=O)c2cc(-c3cncs3)cn3cnnc23)CC1`: the IC50 in series [1] was over 100 µM.

As for `COCCO[C@H]1CC[C@H](N(C)C(=O)c2cc(-c3cncs3)cc3[nH]ccc23)CC1`, in series [1], the IC50 was over 100 µM.

What is called AUC is the area under the concentration-time curve, a measure of exposure. `COCCO[C@H]1CC[C@H](NC(=O)c2cc(-c3cncs3)c(F)c3[nH]ccc23)CC1`: in series [2], the AUC turned out to be 5110 ng·h/mL.

In series [1], `COCCO[C@H]1CC[C@H](NC(=O)c2cc(-n3ccnc3C)cc3cc[nH]c23)CC1` came in with an IC50 of over 100 µM.

Take `COCCO[C@H]1CC[C@H](NC(=O)c2cc(-c3cncs3)cc3cc[nH]c23)CC1`: the AUC in series [2] is 7380 ng·h/mL.

In the case of `COCCO[C@H]1CC[C@H](NC(=O)c2cc(-c3cncs3)nc3cc[nH]c23)CC1`, the AUC in series [2] amounted to 6820 ng·h/mL.

As for `COCCO[C@H]1CC[C@H](NC(=O)c2cc(-c3ccccn3)cc3cc[nH]c23)CC1`, the IC50 in series [1] was over 100 µM.
